Data on 48 compounds can be found in the SangsterLogP compilation.

Data set [1] in a line: from Tehrany, E.A.; Desobry, S. (2005). Comparison between the different calculation methods of partition coefficient of aroma compounds with a difference chemical classes in octanol/water system. ….
Data set [2] can be described thus: method code SF-AS, from PMID: 3774812. Conditions: pH 4.0.
Assay in data set [3]: not given
The source holds these as a separate data set.

Data set [4] can be described thus: method code SF-AS, from DOI: 10.1016/0006-2952(80)90068-4, PMID: 6775639.
Assay in data set [5]: not given
The source holds these as a separate data set.

Assay in data set [6]: not given
The source holds these as a separate data set.

A short description of data set [7]: method code SF-AS, from DOI: 10.1021/jm00128a017, PMID: 2754702. Conditions: pH 7.4.
Data set [8] is described as follows: method code SF-AS, from Brown, J.; Yu, N.; Cory, M.; Bicknell, R.; Taylor, D. (1978). In vivo evaluation of the radiosensitizing and cytotoxic properties of newly synthesized electron-affinic drugs. 3, 206-211.
The nature of data set [9]: method code SF-AS, from DOI: 10.1021/jm00212a022, PMID: 836502.
The nature of data set [10]: method code SF-AS, from DOI: 10.2307/3575639, PMID: 7313077. Conditions: pH 7.4.
The nature of data set [11]: method code SF-AS, from Korenman, Y. (1973). Extraction of p-halophenols. Zh. Prikl. Khim., 46(11)2754-2755. The settings on record: pH 7.4.
Assay in data set [12]: not given
This is another data set of the same source.

The nature of data set [13]: method code …, from Kristl, A.; Vesnaver, G.; Mrhar, A.; Kozjek, F. (1993). Evaluation of partitioning and solubility data for some guanine derivatives in terms of mutual miscibility of octanol and water phase. …. The settings on record: pH 5.2.
Data set [14] is described as follows: method code SF, from DOI: 10.1016/0378-5173(90)90261-2. Conditions: pH 3.0.
A short description of data set [15]: method code SF-AS, from DOI: 10.1080/10826079508009280. Conditions: pH 7.0.
Data set [16] can be described thus: method code SF-HPLC, from DOI: 10.1002/hlca.19880710534. Conditions: pH 7.4.
Data set [17] in a line: method code SF-CR, from PMID: 15170. Conditions: pH 3.0.
Data set [18] in a line: method code SF-RC, from DOI: 10.1021/jm00360a016, PMID: 6854590.
Data set [19] in a line: method code SF-AS, from DOI: 10.1021/jf60217a021, PMID: 659709.
Data set [20] is described as follows: method code SF, from PMID: 7429676. Conditions: pH 7.4.
Assay in data set [21]: not given
The source holds these as a separate data set.

A short description of data set [22]: method code SF-HPLC, from DOI: 10.1124/dmd.30.12.1497, PMID: 12433825. The settings on record: pH 7.4.
A short description of data set [23]: method code SF-AS, from DOI: 10.1021/jf950378u.
Data set [24] is described as follows: method code SF-RC, from DOI: 10.1016/j.nucmedbio.2014.03.023, PMID: 24768149. Conditions: pH 7.4.
A short description of data set [25]: method code SF-AS, from DOI: 10.1016/s0090-9556(25)07961-9, PMID: 6130927.
Assay in data set [26]: not given
The source holds these as a separate data set.

Data set [27] can be described thus: method code SF-GLC, from DOI: 10.1016/0045-6535(95)00311-u.
A short description of data set [28]: from Villegas-Navarro, A.; Rodriguez, M. (1984). Structure-activity relationships between quinone moieties and inhibition of sodium transport. In Kuchar, M. (Ed.) QSAR in Design of Bioactive Compounds. ….
Data set [29] can be described thus: method code SF-GLC, from DOI: 10.1007/s002679900238, PMID: 10486045.
The nature of data set [30]: method code SF-AS, from DOI: 10.1016/j.bmc.2011.10.017, PMID: 22094277. The settings on record: pH 7.4.
Assay in data set [31]: not given
This is another data set of the same source.

A short description of data set [32]: method code SF, from PMID: 23342302. The settings on record: pH 7.4.
A short description of data set [33]: method code SF, from DOI: 10.1248/cpb.18.708. The settings on record: pH 6.4.
Data set [34] in a line: method code SF-AS, from DOI: 10.1211/0022357001773940, PMID: 10757413. The settings on record: pH 7.4.
Assay in data set [35]: not given
The source holds these as a separate data set.

The nature of data set [36]: method code SF-AS, from DOI: 10.1016/0039-9140(66)80126-1, PMID: 18959847. Conditions: pH 7.5.
Assay in data set [37]: not given
The source holds these as a separate data set.

Assay in data set [38]: not given
This is another data set of the same source.

Assay in data set [39]: not given
This is another data set of the same source.

The conditions of data set [40]: pH 4.3.
Data set [41] is described as follows: method code SF, from PMID: 3261785.
Data set [42] is described as follows: method code SF-AS, from DOI: 10.1021/jf60167a006.
Assay in data set [43]: not given
This is another data set of the same source.

The nature of data set [44]: method code SF-AS, from DOI: 10.1021/jf60220a002.
Data set [45] in a line: method code SF-AS, from DOI: 10.1081/jlc-100101494.
The nature of data set [46]: method code SF-AS, from DOI: 10.1139/y89-042, PMID: 2547502. Conditions: pH 7.4.
A short description of data set [47]: method code SF, from DOI: 10.1248/cpb.42.1525, PMID: 7923475.

SMILES strings stand for the structures.

A word on the logP: it is a log measure of how a compound divides between an organic and an aqueous phase. Turning to `CCCCCCCCCC(=O)O`, the logP in [1] is 3.91.

`Cc1c(CC(=O)O)sc2ccc(Cl)cc12`: the logD in data set [2] is 3.12.

Turning to `O=C(O)CNC(=O)OCc1ccccc1`, the logP came out at 1.47.

Compound `CC(=O)Nc1ccc(OC(=O)CBr)cc1` displayed a logP in [3] of 1.08.

`CC1=CC(=O)c2ccccc2C1=O`: in data set [4], the logP was 1.88.

With `CCC(Oc1ccc(Cl)cc1C)C(=O)O` (stereo not drawn), the logP in data set [5] was found to be 3.47.

In the case of `C=C(C)C(=O)OC1CCCCC1`, in [6], the logP worked out at 2.98.

Turning to `Nc1nc2c(ncn2C2CC(O)C(CO)O2)c(=O)[nH]1` (stereo not drawn), the logD in data set [7] was -1.3.

As to `CC(=O)OCC(Cn1ccnc1[N+](=O)[O-])OC(C)=O` (stereo not drawn), in data set [8], the logP was -0.05.

As to `CCCOc1cc(N)ccc1C(=O)O`, the logP in data set [9] was found to be 1.53.

In data set [10], `CN(C)C(=O)c1cc(N2CC2)c([N+](=O)[O-])cc1[N+](=O)[O-]` returned a logD of 0.63.

With `C=CCC1(CC(=C)Br)C(=O)NC(=O)N(C)C1=O` (stereo not drawn), the logD in [11] turned out to be 1.78.

In turn, `CCC1(CC(C)C)C(=O)NC(=O)NC1=O` returned a logP in data set [12] of 1.69.

Regarding `CC(=O)Nc1nc2c(ncn2COCCO)c(=O)[nH]1`, the logD in data set [13] was -1.3.

Take `O=C(O)CCCc1ccccc1`: in data set [14], the logD is 2.32.

`Nc1nc(Cl)nc2c1ncn2[C@@H]1O[C@H](CO)[C@@H](O)[C@@H]1F` yielded a logD in data set [15] of 0.5.

For `C=CCC1(C(=O)NC(N)=O)CC(C)OC1=O` (stereo not drawn), the logD in [16] came out at 0.36.

Take `CCc1nnc(NS(=O)(=O)c2ccc(N)cc2)s1`: the logD in data set [17] amounted to 1.01.

The compound `O=c1ccc2ccc3occc3c2o1` yielded a logP in data set [18] of 2.08.

`COC(=O)N(C)SN(C)C(=O)O/N=C(\SC)C(=O)N(C)C` came in with a logP in data set [19] of -0.07.

`CC(O)Cn1cnc2c1c(=O)n(C)c(=O)n2C` (stereo not drawn) gave a logD in data set [20] of -0.77.

For `Cc1cn([C@H]2O[C@@H](CO)[C@H](O)[C@H]2F)c(=O)[nH]c1=O`, the logP in [21] was -0.51.

Turning to `CN1C(=O)CC(c2ccccc2)C1=O` (stereo not drawn), in data set [22], the logD was determined as 0.68.

The compound `COC(=O)/C=C/c1ccc(O)c(OC)c1` came in with a logP in [23] of 1.2.

`FCCOC1CCC=CCCC1` (stereo not drawn) yielded a logD in [24] of 1.68.

`CCC(N)Cc1ccccc1` (stereo not drawn) returned a logP in [25] of 2.28.

On to `CN(C)/N=N/c1ccc(CC(=O)O)cc1`, for which the logP in data set [26] came to 1.38.

Consider `CCCCCCCCC(Cl)C(Cl)(Cl)Cl` (stereo not drawn), for which the logP in data set [27] turned out to be 5.93.

Compound `CC1=CC(=O)C(C(C)C)=CC1=O` registered a logP in data set [28] of 2.2.

With `C=C(C)C1CCC(C)(O)C1C` (stereo not drawn), in [29], the logP was 2.87.

Take `CCCOC(=O)[C@@]1(C)[C@H](CO)CC=[N+]1[O-]`: the logD in data set [30] is -0.82.

Take `C1COCCOCCOCCOCCO1`: in data set [31], the logP is -0.48.

Consider `Nc1nc(=O)c2ncn(CCC(CO)CF)c2[nH]1` (stereo not drawn), for which the logD in [32] is -0.87.

The compound `COc1ccc(NS(=O)(=O)c2ccc(N)cc2)nn1` showed a logD in data set [33] of 0.4.

Regarding `Cc1c(O)c(=O)ccn1CCc1c[nH]cn1`, the logD in data set [34] was -0.05.

As for `CCNc1nc(NC(C)(C)C)nc(SC)n1`, the log partition coefficient (logP) in [35] amounted to 3.43.

In [36], `Cc1ccc2cccc(O)c2n1` had a logD of 2.33.

`OC[C@@H]1C[C@@H](F)[C@H](n2cnc3c(F)ncnc32)O1` displayed a logP in [37] of 0.06.

In the case of `COc1ccc(NC(=O)C2CC2)cn1`, the lipophilicity (logP) in data set [38] came out at 1.57.

With `Cc1noc(NS(=O)(=O)c2ccc(N)cc2)c1C`, the logP in [39] amounted to 0.83.

Consider `Nc1ccc(S(=O)(=O)Nc2ncccn2)cc1`, for which the logD in data set [40] was -0.04.

Take `Cc1c(I)c(=O)n(-c2ccccc2)n1C`: the logP in data set [41] is 1.27.

`CCOP(=S)(OCC)Oc1ccccc1`: in data set [42], the logP stood at 3.46.

`NC12CC3CC(CC(C3)C1)C2` returned a logP in data set [43] of 2.54.

Take `CCOP(N)(=O)O/N=C(/C#N)c1ccccc1` (stereo not drawn): the logP in [44] amounted to 0.72.

In data set [45], `CC1(Br)C(=O)NC(=O)N2C3CC(N=[N+]=[N-])C(COC21)O3` (stereo not drawn) gave a logP of 1.11.

Regarding `Nc1ncnc2c1nc(Br)n2[C@@H]1O[C@@H]2COP(=O)(O)O[C@H]2[C@H]1O`, in data set [46], the logD was -2.44.

`CCCC(=O)c1ccccc1` had a logP in [47] of 2.66.
